Assay results reported in publication PMC8199213, “Pharmacophore-Based Virtual Screening of Novel Competitive Inhibitors of the Neurodegenerative Disease Target Kynurenine-3-Monooxygenase” (Molecules, 2021).

How the values were obtained:
[1] = biological target: T1, human kynurenine-3-monooxygenase (hKMO) (Homo sapiens, UniProt O15229); assay: KMO NADPH-consumption assay (BPS Bioscience KMO Screening Kit), dose-response; positive control; format: biochemical
T1 construct: gene KMO; purified KMO protein with C-terminal His-FLAG-tag

[2] = biological target: T1, human kynurenine-3-monooxygenase (hKMO); assay: KMO NADPH-consumption assay; […] inhibition at […], […] at […]; format: biochemical

T1 sequence (O15229 whole entry): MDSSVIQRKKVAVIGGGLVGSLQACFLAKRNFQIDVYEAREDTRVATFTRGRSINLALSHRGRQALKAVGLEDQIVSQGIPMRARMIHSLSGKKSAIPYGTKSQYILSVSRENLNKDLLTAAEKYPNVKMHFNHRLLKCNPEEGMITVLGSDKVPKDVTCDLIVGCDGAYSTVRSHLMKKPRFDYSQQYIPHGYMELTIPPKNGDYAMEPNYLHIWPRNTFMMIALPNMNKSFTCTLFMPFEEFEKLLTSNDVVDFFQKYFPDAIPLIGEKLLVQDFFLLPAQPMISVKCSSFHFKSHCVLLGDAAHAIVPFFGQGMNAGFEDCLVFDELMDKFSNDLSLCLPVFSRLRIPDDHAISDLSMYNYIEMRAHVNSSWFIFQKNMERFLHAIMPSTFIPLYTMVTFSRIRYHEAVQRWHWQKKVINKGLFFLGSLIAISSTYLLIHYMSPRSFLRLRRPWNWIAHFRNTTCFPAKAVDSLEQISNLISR

IC50 [2] | SMILES | IC50 [1]
– | COc1ccc(S(=O)(=O)Nc2nc(-c3cccc([N+](=O)[O-])c3)cs2)cc1OC [Ro 61-8084] | 727 ± 88 nM
< 10000 nM | Cc1cc2nc(CCC(=O)O)c(=O)[nH]c2cc1C [VS6, F6548-0495] | –
